Assay: Blood residence time of ^64Cu-Tz-SarAr in healthy mice
Type: in vivo, athymic nude mice
Settings: for Activity in Blood: healthy mice
Description: The radioligand was excreted rapidly via the bladder and kidneys, and the activity concentrations in the large intestine—a critical source of background noise in clinical colorectal cancer imaging—remained remarkably low (e.g., 0.07±0.01% ID/g at 1 h post-injection). Additional experiments were conducted to further interrogate the in vivo performance of ^64Cu-Tz-SarAr.

NC12CNCCNCC(NCc3ccc(CNC(=O)CCCC(=O)NCc4ccc(-c5nncnn5)cc4)cc3)(CNCCNC1)CNCCNC2.[64Cu+2] [^64Cu-Tz-SarAr]
half-life of clearance from the blood (biexponential fit, greater than 99% of the radioligand): ~16 min
Activity in Blood (15 min): 3.02 ± 1.10 % ID/g
Activity in Blood (30 min): 1.55 ± 0.21 % ID/g
Activity in Blood (1 h): 0.42 ± 0.11 % ID/g
Activity in Blood (4 h): 0.15 ± 0.01 % ID/g
Activity in Blood (12 h): 0.12 ± 0.03 % ID/g
Activity in Blood (24 h): 0.06 ± 0.01 % ID/g
blood residence time (vast majority of the radioligand): ~16 min

— patent US11135320B2, “Radioligands for pretargeted pet imaging and methods of their therapeutic use” (priority 2015, dated 2021)
